In publication PMC12707263 (ACS Pharmacology & Translational Science, 2025):
Entries after “also recorded” stand apart in the source; their conditions may differ.

What was measured:
[1] = reported values; ref not given; cited from earlier work
OCI-Ly10 cells = test: Pairwise 10 × 10 matrix combination with venetoclax, Cell Titer Glo viability; conditions: for synergistic cell killing when combined with venetoclax: ΔBlissSum
[2] = test system: 24 kinase targets associated with B-cell malignancy signaling cascades; test: HotSpot profile across the panel; format: biochemical
REC-1 cells = test: Pairwise 10 × 10 matrix combination with venetoclax, Cell Titer Glo viability; conditions: venetoclax 10000 nM to 39 nM
HBL1 cells = test: as above; conditions: venetoclax 1000 nM to 3.9 nM

| SMILES | fraction unbound (FU) [1] | synergistic cell killing when combined with venetoclax (OCI-Ly10 cells) | off-target profile across the 24 kinase panel [2] | other results |
| --- | --- | --- | --- | --- |
| CC#CC(=O)N1CCC[C@H]1c1nc(-c2ccc(C(=O)Nc3ccccn3)cc2)c2c(N)nccn12 [Acalabrutinib] | 2.5 % FU | more focal in nature | most selective; also recorded: remarkably free of any additional off target activity |  |
| CC#CC(=O)N[C@H]1CCCN(c2c(F)cc(C(N)=O)c3[nH]c(C)c(C)c23)C1 [Branebrutinib] | 1.2 % FU |  | remarkably free of any additional off target activity |  |
| C=CC(=O)N1CCC(CNc2ncnc(N)c2-c2ccc(Oc3ccccc3)cc2)CC1 [Evobrutinib] |  |  | remarkably free of any additional off target activity |  |
| C[C@H]1CN(C2COC2)CCN1c1ccc(Nc2cc(-c3ccnc(N4CCn5c(cc6c5CC(C)(C)C6)C4=O)c3CO)cn(C)c2=O)nc1 [Fenebrutinib] |  |  | most selective; also recorded: remarkably free of any additional off target activity |  |
| C=CC(=O)N1CCC[C@@H](n2nc(-c3ccc(Oc4ccccc4)cc3)c3c(N)ncnc32)C1 [Ibrutinib] |  |  | most promiscuous beyond BMX and BLK |  |
| C=CC(=O)Nc1cccc(Oc2nc(Nc3ccc(N4CCN(C)CC4)cc3)nc3ccoc23)c1 [Poseltinib] |  | more focal in nature | most promiscuous beyond BMX and BLK |  |
| C=CC(=O)N(C)CCOc1c(N)ncnc1-c1cc(F)cc(NC(=O)c2ccc(C3CC3)cc2F)c1C [Remibrutinib] |  | similar, broad synergistic cell killing across multiple concentration ranges | most selective; also recorded: remarkably free of any additional off target activity |  |
| CC(C)(/C=C(\C#N)C(=O)N1CCC[C@@H](n2nc(-c3ccc(Oc4ccccc4)cc3F)c3c(N)ncnc32)C1)N1CCN(C2COC2)CC1 [Rilzabrutinib] |  | similar, broad synergistic cell killing across multiple concentration ranges | remarkably free of any additional off target activity |  |
| CC#CC(=O)N1CC[C@@H](n2c(=O)n(-c3ccc(Oc4ccccc4)cc3)c3c(N)ncnc32)C1 [Tirabrutinib] | 8.3 % FU |  | most selective; also recorded: remarkably free of any additional off target activity |  |
| CC1(C)CCC(CN2CCN(c3ccc(C(=O)NS(=O)(=O)c4ccc(NCC5CCOCC5)c([N+](=O)[O-])c4)c(Oc4cnc5[nH]ccc5c4)c3)CC2)=C(c2ccc(Cl)cc2)C1 [Venetoclax] |  |  |  | single agent activity (cytotoxicity) (REC-1 cells): no single agent activity; single agent activity (cytotoxicity) (OCI-Ly10 cells; venetoclax 1000 nM to 3.9 nM): no single agent activity; single agent activity (cytotoxicity) (HBL1 cells): no single agent activity |
| C=CC(=O)N1CCC([C@@H]2CCNc3c(C(N)=O)c(-c4ccc(Oc5ccccc5)cc4)nn32)CC1 [Zanubrutinib] | 6 % FU | similar, broad synergistic cell killing across multiple concentration ranges | most promiscuous beyond BMX and BLK |  |
